In patent US5861269A, “Methods for removing interferences due to endogenous dehydrogenases in enzyme assays” (Dade Behring Marburg GmbH, priority 1996, dated 1999):

Assays:
[1] = tested on: α-glycerophosphate dehydrogenase; conditions: Bacchi et al., J. Bacteriol. 98(1), 23-28 (1969); cited from earlier work
malate dehydrogenase = conditions: Bacchi et al., J. Bacteriol. 98(1), 23-28 (1969); cited from earlier work
[2] = tested on: endogenous dehydrogenases; assay: Emit Ethyl Alcohol Assay with inhibitor, whole blood samples; format: biochemical; conditions: whole blood ethanol samples
Procedure: (§1) The ability of inhibitors to prevent false positive results with samples containing endogenous dehydrogenases was determined by employing the Emit® Ethyl Alcohol Assay available from Syva Company, San Jose, Calif. (Part No. 9K219). The assays were performed on the Cobas Mira-S analyzer (Roche Diagnostics Inc., Nutley, N.J.) according to the manufacturer's instructions using the protocol provided by Syva Company. Briefly, the Emit® Ethyl Alcohol Assay consists of two reagents, Reagent 1 and Reagent 2. Reagent 1 contains Tris buffer, stabilizers and preservatives. Reagent 2 contains alcohol dehydrogenase, nicotinamide adenine dinucleotide (NAD^+), bulking agents, stabilizers, surfactants and preservatives. Reagent 2 is shipped in dry form and is reconstituted according to the manufacturer's instructions. To perform the assay, Reagent 1 and Reagent 2 %ere added to the sample. Following mixing and incubation, the change in absorbance at 340 nm was monitored. The reaction is linear, and calibration was achieved by single point calibration using a 100 mg/dL (0.10%) calibrator, supplied by Syva Company. The calculation of results was not required. The instrument prints the quantitative result.
In the following examples, results reported under the column Current Emit® refer to results observed using the Emit® Ethyl Alcohol assay in the absence of inhibitor. […]

[3] = tested on: endogenous dehydrogenases; assay: Emit Ethyl Alcohol Assay with inhibitor, serum samples falsely elevated by endogenous dehydrogenases; format: biochemical; conditions: inhibitor in Reagent 1
Procedure: as §1, with “(Part” for “The ability of inhibitors to prevent false positive results with samples containing endogenous dehydrogenases was determined by employing the Emit® Ethyl Alcohol Assay available from Syva Company, San Jose, Calif. (Part”
Results reported under the column GC refer to confirmatory results obtained using gas chromatography.
Agaric acid was dissolved in Emit® Ethyl Alcohol Reagent 1 by stirring with heat to a concentration of 25 mM. […] The solution was cooled to room temperature. The pH of the solution was measured and adjusted to the pH of the Emit® Ethyl Alcohol Reagent 1 (pH 9.0) with a small volume of 10N NaOH. […] These discrepant samples were analyzed using the Emit® Ethyl Alcohol Assay side by side with the assay containing agaric acid.

Structure (SMILES) | Inhibition of α-glycerophosphate dehydrogenase [1] | Inhibition of malate dehydrogenase (malate dehydrogenase) | Accuracy of the Emit Ethyl Alcohol Assay versus current Emit product [2] | Effect on elevated (false-positive) ethanol results of the Emit Ethyl Alcohol Assay [3]
CCCCCCCCCCCCCCCCC(C(=O)O)C(O)(CC(=O)O)C(=O)O (centres unmarked) [Agaric Acid, Agaric acid] | highly inhibitory | highly inhibitory | improved accuracy | eliminated
CCCCCCCCCCOS(=O)(=O)[O-].[Na+] [Sodium Decyl Sulfate, sodium decyl sulfate] |  |  |  | eliminated
CCCC/C=C\CCCCCCCC(=O)O [Myristoleic Acid, myristoleic acid] |  |  |  | eliminated
CCCCCCCCCCCCOS(=O)(=O)[O-].[Na+] [SDS, sodium dodecyl sulfate] |  |  |  | eliminated
CCCCCCCCCCCC(=O)O [Lauric Acid, Lauric acid] |  |  |  | eliminated
